Measurements taken from PubChem BioAssay AID1963848 (Molecular Pharmacology Branch, DTP, NCI, 2024).

Tested on: 379773-124-R-J2-PDC spheroid viability
Assay: Anticancer human tumor 379773-124-R-J2-PDC patient-derived endometrial carcinoma cell line growth inhibition [POLQ]
Details: spheroids with HUVEC and MSC; for IC50: curve of first compound; for viability, T/C: stronger effect = lower value
Summary of the method: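 Three-cell-type spheroids modelling solid tumor plus stroma served as the readout system; POL inhibitors were tested individually and in combination, concentration ranges set by clinical Cmax where known.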

[1] = second compound 0.0316 µM, first compound 0.0316 µM
[2] = second compound 0.0316 µM, first compound 0.1 µM
[3] = second compound 0.0316 µM, first compound 0.316 µM
[4] = second compound 0.0316 µM, first compound 1 µM
[5] = second compound 0.0316 µM, first compound 3.16 µM
[6] = second compound 0.0316 µM, first compound 10 µM
[7] = second compound 0.1 µM, first compound 0.0316 µM
[8] = second compound 0.1 µM, first compound 0.1 µM
[9] = second compound 0.1 µM, first compound 0.316 µM
[10] = second compound 0.1 µM, first compound 1 µM
[11] = second compound 0.1 µM, first compound 3.16 µM
[12] = second compound 0.1 µM, first compound 10 µM
[13] = second compound 0.316 µM, first compound 0.0316 µM
[14] = second compound 0.316 µM, first compound 0.1 µM
[15] = second compound 0.316 µM, first compound 0.316 µM
[16] = second compound 0.316 µM, first compound 1 µM
[17] = second compound 0.316 µM, first compound 3.16 µM
[18] = second compound 0.316 µM, first compound 10 µM
[19] = second compound 1 µM, first compound 0.0316 µM
[20] = second compound 1 µM, first compound 0.1 µM
[21] = second compound 1 µM, first compound 0.316 µM
[22] = second compound 1 µM, first compound 1 µM
[23] = second compound 1 µM, first compound 3.16 µM
[24] = second compound 1 µM, first compound 10 µM
[25] = second compound 3.16 µM, first compound 0.0316 µM
[26] = second compound 3.16 µM, first compound 0.1 µM
[27] = second compound 3.16 µM, first compound 0.316 µM
[28] = second compound 3.16 µM, first compound 1 µM
[29] = second compound 3.16 µM, first compound 3.16 µM
[30] = second compound 3.16 µM, first compound 10 µM
[31] = second compound 10 µM, first compound 0.0316 µM
[32] = second compound 10 µM, first compound 0.1 µM
[33] = second compound 10 µM, first compound 0.316 µM
[34] = second compound 10 µM, first compound 1 µM
[35] = second compound 10 µM, first compound 3.16 µM
[36] = second compound 10 µM, first compound 10 µM
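Also: spheroids exposed to drugs for seven days before readout.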
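For viability, T/C in this document: percent viability relative to DMSO vehicle control taken as 100%.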

`CCCS(=O)(=O)Nc1ccc(F)c(C(=O)c2c[nH]c3ncc(-c4ccc(Cl)cc4)cc23)c1F` + COC1C(OC(N)=O)C(O)C(Oc2ccc3c(O)c(NC(=O)c4ccc(O)c(CC=C(C)C)c4)c(=O)oc3c2C)OC1(C)C gave an IC50 (second compound 0.0316 µM) of over 10 µM, an IC50 (second compound 0.1 µM) of over 10 µM and an IC50 (second compound 0.316 µM) of over 10 µM. For the same compound, the IC50 (second compound 1 µM) was over 10 µM, the IC50 (second compound 3.16 µM) was over 10 µM and the IC50 (second compound 10 µM) was over 10 µM. The viability, T/C [1] was 94.2%, the viability, T/C [2] was 86.8% and the viability, T/C [3] was 83.8%. It also gave a viability, T/C [4] of 87.9%, a viability, T/C [5] of 70.5% and a viability, T/C [6] of 57.9%. The viability, T/C [7] was 86.2%, the viability, T/C [8] was 87.7% and the viability, T/C [9] was 88.3%. For the same compound, the viability, T/C [10] was 80.3%, the viability, T/C [11] was 73.1% and the viability, T/C [12] was 55.4%. For the same compound, the viability, T/C [13] was 77.1%, the viability, T/C [14] was 75.6% and the viability, T/C [15] was 76.8%. The viability, T/C [16] was 77.6%, the viability, T/C [17] was 66.2% and the viability, T/C [18] was 52.9%. The viability, T/C [19] was 87.6%, the viability, T/C [20] was 84.4% and the viability, T/C [21] was 81.8%. The viability, T/C [22] was 77.8%, the viability, T/C [23] was 73.6% and the viability, T/C [24] was 58.9%. The viability, T/C [25] was 73.5%, the viability, T/C [26] was 76.2% and the viability, T/C [27] was 75.8%. For the same compound, the viability, T/C [28] was 76.4%, the viability, T/C [29] was 75.7% and the viability, T/C [30] was 61.3%. For the same compound, the viability, T/C [31] was 78.5%, the viability, T/C [32] was 85.4% and the viability, T/C [33] was 79.8%. For the same compound, the viability, T/C [34] was 66.5%, the viability, T/C [35] was 75.9% and the viability, T/C [36] was 60.2%.

`CNCc1ccc(-c2[nH]c3cc(F)cc4c3c2CCNC4=O)cc1` + COC1C(OC(N)=O)C(O)C(Oc2ccc3c(O)c(NC(=O)c4ccc(O)c(CC=C(C)C)c4)c(=O)oc3c2C)OC1(C)C showed an IC50 (second compound 0.0316 µM) of over 10 µM, an IC50 (second compound 0.1 µM) of over 10 µM and an IC50 (second compound 0.316 µM) of over 10 µM. The IC50 (second compound 1 µM) was over 10 µM, the IC50 (second compound 3.16 µM) was over 10 µM and the IC50 (second compound 10 µM) was over 10 µM. It also gave a viability, T/C [1] of 104%, a viability, T/C [2] of 86.1% and a viability, T/C [3] of 84.5%. The viability, T/C [4] was 74.5%, the viability, T/C [5] was 82.5% and the viability, T/C [6] was 78.1%. For the same compound, the viability, T/C [7] was 102%, the viability, T/C [8] was 86.7% and the viability, T/C [9] was 90.5%. It also gave a viability, T/C [10] of 88.2%, a viability, T/C [11] of 87.8% and a viability, T/C [12] of 82.9%. It also gave a viability, T/C [13] of 95.5%, a viability, T/C [14] of 96.8% and a viability, T/C [15] of 87.8%. For the same compound, the viability, T/C [16] was 93.2%, the viability, T/C [17] was 77.2% and the viability, T/C [18] was 78.4%. The viability, T/C [19] was 91.8%, the viability, T/C [20] was 98.2% and the viability, T/C [21] was 78.1%. The viability, T/C [22] was 86.1%, the viability, T/C [23] was 82.6% and the viability, T/C [24] was 67.3%. For the same compound, the viability, T/C [25] was 79.8%, the viability, T/C [26] was 79.9% and the viability, T/C [27] was 76.2%. For the same compound, the viability, T/C [28] was 85.1%, the viability, T/C [29] was 80.1% and the viability, T/C [30] was 78.3%. The viability, T/C [31] was 80.3%, the viability, T/C [32] was 81.7% and the viability, T/C [33] was 96.5%. The viability, T/C [34] was 75.5%, the viability, T/C [35] was 76.7% and the viability, T/C [36] was 65.7%.

`COc1cccc(OCCCN)c1-c1cc(Nc2cnc(C#N)cn2)n[nH]1` + COC1C(OC(N)=O)C(O)C(Oc2ccc3c(O)c(NC(=O)c4ccc(O)c(CC=C(C)C)c4)c(=O)oc3c2C)OC1(C)C was tested, and the IC50 (second compound 0.0316 µM) was 0.00443 µM, the IC50 (second compound 0.1 µM) was 0.00353 µM and the IC50 (second compound 0.316 µM) was 0.0035 µM. The IC50 (second compound 1 µM) was 0.00446 µM, the IC50 (second compound 3.16 µM) was 0.00376 µM and the IC50 (second compound 10 µM) was 0.00381 µM. For the same compound, the viability, T/C (second compound 0.0316 µM, first compound 0.00316 µM) was 69.1%, the viability, T/C (second compound 0.0316 µM, first compound 0.01 µM) was 3.94% and the viability, T/C [1] was 2.78%. The viability, T/C [2] was 2%, the viability, T/C [3] was 1.77% and the viability, T/C [4] was 1.34%. The viability, T/C (second compound 0.1 µM, first compound 0.00316 µM) was 54.7%, the viability, T/C (second compound 0.1 µM, first compound 0.01 µM) was 5.02% and the viability, T/C [7] was 2.47%. It also gave a viability, T/C [8] of 1.87%, a viability, T/C [9] of 2.26% and a viability, T/C [10] of 1.32%. For the same compound, the viability, T/C (second compound 0.316 µM, first compound 0.00316 µM) was 54.3%, the viability, T/C (second compound 0.316 µM, first compound 0.01 µM) was 4.98% and the viability, T/C [13] was 2.58%. It also gave a viability, T/C [14] of 1.9%, a viability, T/C [15] of 1.7% and a viability, T/C [16] of 0.97%. The viability, T/C (second compound 1 µM, first compound 0.00316 µM) was 69.2%, the viability, T/C (second compound 1 µM, first compound 0.01 µM) was 5.09% and the viability, T/C [19] was 1.91%. The viability, T/C [20] was 2%, the viability, T/C [21] was 1.74% and the viability, T/C [22] was 1.47%. The viability, T/C (second compound 3.16 µM, first compound 0.00316 µM) was 57.9%, the viability, T/C (second compound 3.16 µM, first compound 0.01 µM) was 5.31% and the viability, T/C [25] was 2.5%. It also gave a viability, T/C [26] of 2.18%, a viability, T/C [27] of 1.81% and a viability, T/C [28] of 1.54%. For the same compound, the viability, T/C (second compound 10 µM, first compound 0.00316 µM) was 58.8%, the viability, T/C (second compound 10 µM, first compound 0.01 µM) was 4.41% and the viability, T/C [31] was 2.84%. For the same compound, the viability, T/C [32] was 2.3%, the viability, T/C [33] was 3.07% and the viability, T/C [34] was 1.39%.
